Results taken from US7692030B2, “Conjugates of artemisinin-related endoperoxides and hydrazone derivatives for the treatment of cancer” (University of Washington, priority 2006, dated 2010).

Columns and labels:
[1] = system: approximately 60 human tumor cell lines; assay: NCI DTP human tumor cell line screen, whole panel statistics; assay type: cell-based; conditions: for inhibitory activities against cancer cells: DTP human tumor cell line screen, non-small cell lung, colon, breast, ovarian, leukemia, renal, melanoma, prostate, CNS cancer; for mean growth percent: mean over all cell lines tested; for mean growth percent / delta value (growth percent) / range (growth percent): 10 μM, 48 h; for delta value (growth percent) / range (growth percent): over all cell lines tested
Description: (§1) Representative compounds of the invention, prepared as described in EXAMPLES 1-6, were submitted to the Developmental Therapeutics Program of the United States National Cancer Institute (NCl) to screen for anti-cancer activity. The anti-cancer activities of the six compounds were tested against approximately 60 human tumor cell lines representing leukemia, melanoma, and cancers of the lung, colon, breast, ovary, kidney, prostate, and brain. The following screening methodology was provided by the NCl. […] For experimental screens, cells were inoculated into 96 well microtiter plates in 100 μL at plating densities ranging from 5,000 to 40,000 cells/well depending on the doubling time of individual cell lines. After cell inoculation, the microtiter plates were incubated at 37° C., 5% carbon dioxide, 95% air and 100% relative humidity for 24 hours prior to addition of the compounds. After 24 hours of incubation, two plates of each cell line were fixed in situ with trichloroacetic acid (TCA) to represent a measurement of the cell population for each cell line at the time of compound addition (Tz). The compounds were solubilized in dimethyl sulfoxide at 400-fold the desired final maximum test concentration and stored frozen prior to use. At the time of drug addition, frozen aliquots of the compounds thawed and diluted with complete medium containing 50 μg/ml gentamicin. Aliquots of 100 μl of these different compound dilutions were added to the appropriate microtiter wells already containing 100 μl of medium, resulting in the required final compound concentration of 10 μM. Following compound addition, the plates were incubated for an additional 48 h at 37° C., 5% carbon dioxide, 95% air, and 100% relative humidity. For adherent cells, the assay was terminated by the addition of cold TCA. Cells were fixed in situ by the gentle addition of 50 μl of cold 50% (w/v) TCA (final concentration, 10% TCA) and incubated for 60 minutes at 4° C. The supernatant was discarded, and the plates were washed five times with tap water and air dried. Sulforhodamine B (SRB) solution (100 μl) at 0.4% (w/v) in 1% acetic acid was added to each well, and plates were incubated for 10 minutes at room temperature. After staining, unbound dye was removed by washing five times with 1% acetic acid and the plates were air dried. Bound stain was subsequently solubilized with 10 mM trizma base, and the absorbance was read on an automated plate reader at a wavelength of 515 nm. For suspension cells, the methodology was the same except that the assay was terminated by fixing settled cells at the bottom of the wells by gently adding 50 μl of 80% TCA (final concentration, 16% TCA). Using the three absorbance measurements [time zero, (Tz), control growth, (C), and test growth in the presence of compound (Ti)], the percentage growth was calculated at each of the compound concentrations levels. Percentage growth inhibition was calculated with the following algorithms: [(Ti−Tz)/(C−Tz)]×100 for concentrations for which Ti>/=Tz [(Ti−Tz)/Tz]×100 for concentrations for which Ti<Tz The results of the NCl in vitro anticancer screening with six compounds against various human tumor cell lines are presented below in Tables 2-7. […] The growth percent mean, delta, and range for each compound are given below.

OVCAR-8 = assay: NCI DTP human tumor cell line screen (SRB); assay type: cell-based; conditions: Ovarian Cancer, 10 μM, 48 h
Description: as §1

NCI/ADR-RES = assay: NCI DTP human tumor cell line screen (SRB); assay type: cell-based; conditions: Breast Cancer, 10 μM, 48 h
Description: as §1

TK-10 = assay: NCI DTP human tumor cell line screen (SRB); assay type: cell-based; conditions: Renal Cancer, 10 μM, 48 h
Description: as §1

SK-MEL-28 = assay: NCI DTP human tumor cell line screen (SRB); assay type: cell-based; conditions: Melanoma, 10 μM, 48 h
Description: as §1

LOX IMVI = assay: NCI DTP human tumor cell line screen (SRB); assay type: cell-based; conditions: Melanoma, 10 μM, 48 h
Description: as §1

HS 578T = assay: NCI DTP human tumor cell line screen (SRB); assay type: cell-based; conditions: Breast Cancer, 10 μM, 48 h
Description: as §1

CCRF-CEM = assay: NCI DTP human tumor cell line screen (SRB); assay type: cell-based; conditions: Leukemia, 10 μM, 48 h
Description: as §1

NCI-H322M = assay: NCI DTP human tumor cell line screen (SRB); assay type: cell-based; conditions: Non-Small Cell Lung Cancer, 10 μM, 48 h
Description: as §1

SR = assay: NCI DTP human tumor cell line screen (SRB); assay type: cell-based; conditions: Leukemia, 10 μM, 48 h
Description: as §1

MCF7 = assay: NCI DTP human tumor cell line screen (SRB); assay type: cell-based; conditions: Breast Cancer, 10 μM, 48 h
Description: as §1

HOP-62 = assay: NCI DTP human tumor cell line screen (SRB); assay type: cell-based; conditions: Non-Small Cell Lung Cancer, 10 μM, 48 h
Description: as §1

A498 = assay: NCI DTP human tumor cell line screen (SRB); assay type: cell-based; conditions: Renal Cancer, 10 μM, 48 h
Description: as §1

UACC-62 = assay: NCI DTP human tumor cell line screen (SRB); assay type: cell-based; conditions: Melanoma, 10 μM, 48 h
Description: as §1

MALME-3M = assay: NCI DTP human tumor cell line screen (SRB); assay type: cell-based; conditions: Melanoma, 10 μM, 48 h
Description: as §1

SW-620 = assay: NCI DTP human tumor cell line screen (SRB); assay type: cell-based; conditions: Colon Cancer, 10 μM, 48 h
Description: as §1

KM12 = assay: NCI DTP human tumor cell line screen (SRB); assay type: cell-based; conditions: Colon Cancer, 10 μM, 48 h
Description: as §1

SF-268 = assay: NCI DTP human tumor cell line screen (SRB); assay type: cell-based; conditions: CNS Cancer, 10 μM, 48 h
Description: as §1

RPMI-8226 = assay: NCI DTP human tumor cell line screen (SRB); assay type: cell-based; conditions: Leukemia, 10 μM, 48 h
Description: as §1

M14 = assay: NCI DTP human tumor cell line screen (SRB); assay type: cell-based; conditions: Melanoma, 10 μM, 48 h
Description: as §1

HT29 = assay: NCI DTP human tumor cell line screen (SRB); assay type: cell-based; conditions: Colon Cancer, 10 μM, 48 h
Description: as §1

NCI-H522 = assay: NCI DTP human tumor cell line screen (SRB); assay type: cell-based; conditions: Non-Small Cell Lung Cancer, 10 μM, 48 h
Description: as §1

MDA-MB-231/ATCC = assay: NCI DTP human tumor cell line screen (SRB); assay type: cell-based; conditions: Breast Cancer, 10 μM, 48 h
Description: as §1

HL-60(TB) = assay type: cell-based, human; conditions: Leukemia, 10 μM, 48 h
Description: The human tumor cell lines of the cancer screening panel were grown in RPMI 1640 medium containing 5% fetal bovine serum and 2 mM L-glutamine. For experimental screens, cells were inoculated into 96 well microtiter plates in 100 μL at plating densities ranging from 5,000 to 40,000 cells/well depending on the doubling time of individual cell lines. After cell inoculation, the microtiter plates were incubated at 37° C., 5% carbon dioxide, 95% air and 100% relative humidity for 24 hours prior to addition of the compounds.

| SMILES | mean growth percent [1] [%] | delta value (growth percent) [1] | range (growth percent) [1] | Growth Percent (OVCAR-8) [%] | Growth Percent (NCI/ADR-RES) [%] | Growth Percent (TK-10) [%] | Growth Percent (SK-MEL-28) [%] | Growth Percent (LOX IMVI) [%] | Growth Percent (HS 578T) [%] | Growth Percent (CCRF-CEM) [%] | Growth Percent (SR) [%] | Growth Percent (MCF7) [%] | Growth Percent (HOP-62) [%] | Growth Percent (A498) [%] | Growth Percent (UACC-62) [%] | Growth Percent (SW-620) [%] | Growth Percent (SF-268) [%] | Growth Percent (RPMI-8226) [%] | Growth Percent (M14) [%] | Growth Percent (HT29) [%] | further results |
| --- | --- | --- | --- | --- | --- | --- | --- | --- | --- | --- | --- | --- | --- | --- | --- | --- | --- | --- | --- | --- | --- |
| CC1CCC2C(C)C(OCc3ccc(C(=O)NN=Cc4ccccc4O)nc3)OC3OC4(C)CCC1C32OO4 (stereo not drawn) [ART-Pyr-Sal, N′-(2-hydroxybenzylidene)-5-(dihydroxyartemisinin-methyl)-2-pyridine carbohydrazide] | 12.83 | 42.97 | 85.3 | 8.81 | 6.72 | 31.03 | 29.92 | 2.20 | 19.38 | −17.26 | −30.14 | 13.61 | 20.73 | 5.27 | 7.61 | 26.43 | 12.40 | 13.76 | −9.91 | 29.61 | inhibitory activities against cancer cells [1]: inhibitory activities against several types of cancer cells; Growth Percent (NCI-H322M): 31.89%; Growth Percent (MALME-3M): 8.61%; Growth Percent (KM12): 29.31%; Growth Percent (NCI-H522): 10.19%; Growth Percent (MDA-MB-231/ATCC): 50.08%; Growth Percent (HL-60(TB)): 5.22% |
| CC1CCC2C(C)C(OCc3ccc(C(=O)NN=Cc4ccccc4)cc3)OC3OC4(C)CCC1C32OO4 (stereo not drawn) [ART-Phe-Bz, N′-(benzylidene)-4-(dihydroxyartemisinin-methyl)-phenyl carbohydrazide] | 17.28 | 66.68 | 102.60 | 26.65 | 19.93 | 19.78 | 45.74 | 8.89 | 34.12 | 6.71 | −24.04 | 11.63 | 52.14 | 30.47 | 24.51 | 19.48 | 35.30 | 1.50 | 34.29 | 18.46 | Growth Percent (NCI-H322M): 53.20%; Growth Percent (MALME-3M): 32.27%; Growth Percent (KM12): 10.19%; Growth Percent (NCI-H522): −9.33%; Growth Percent (MDA-MB-231/ATCC): 26.78%; Growth Percent (HL-60(TB)): −49.40% |
| CC1CCC2C(C)C(OCCn3cc(C(=O)NN=Cc4ccccc4O)nn3)OC3OC4(C)CCC1C32OO4 (stereo not drawn) [ART-Triazole-Sal, N′-(2-hydroxybenzylidene)-1-(dihydroxyartemisinin-ethyl)-1H-1,2,3-triazole-4-carbohydrazide] | 22.31 | 53.47 | 83.7 | 25.82 | 15.88 | 38.15 | 27.59 | 6.87 | 48.29 | −14.86 | 0.08 | 13.62 | 24.18 | 50.94 | 10.70 | 31.03 | 21.15 | 18.69 | 3.07 | 31.44 | inhibitory activities against cancer cells [1]: inhibitory activities against several types of cancer cells; mean growth percent ([1]; summary text): 22.31%; Growth Percent (NCI-H322M): 27.06%; Growth Percent (MALME-3M): 42.33%; Growth Percent (KM12): 29.83%; Growth Percent (MDA-MB-231/ATCC): 52.54%; Growth Percent (HL-60(TB)): −31.16% |
| CC1CCC2C(C)C(OCc3ccc(C(=O)NN=Cc4ccccc4O)o3)OC3OC4(C)CCC1C32OO4 (stereo not drawn) [ART-Furan-Sal, N′-(2-hydroxybenzylidene)-5-(dihydroxyartemisinin-methyl)-furan-2-carbohydrazide] | 6.1 | 54.64 | 89.31 | 17.07 | 11.14 | 40.77 | 16.46 | 0.03 | 40.07 | −23.63 | −29.47 | 1.18 | 12.94 | 12.88 | −5.97 | 13.95 | −0.43 | 13.00 | −48.54 | 22.40 | inhibitory activities against cancer cells [1]: inhibitory activities against several types of cancer cells; mean growth percent ([1]; summary text): 6.1%; Growth Percent (NCI-H522): −10.76%; Growth Percent (MDA-MB-231/ATCC): 31.58%; Growth Percent (HL-60(TB)): −43.79% |
